Where a SMILES comes first, the peptide text is derived from it.
Legend:
[1] = system: TNF-α in peritoneal macrophages; test: TNF-α production in LPS-activated peritoneal macrophages pre-incubated with peptide; assay type: cell-based, Balb/c mice; conditions: 5 μM pre-incubation 18 h, then LPS 1 μg/ml; 1-24 h; FIG. 6
Experimental: Peritoneal elicited cells were obtained from Balb/c mice (CENPALAB, Havana, Cuba). Primary mouse macrophages was collected from the peritoneal cavity 4 days after intraperitoneal injection with 1 ml of 4% Brewer's thioglicollate broth. Cell were maintained in RPMI 1640 supplemented with 10% heat-inactivated fetal bovine serum, 2 mM L-glutamine, 200 units/ml penicillin, and 200 μg/ml streptomycin at 37° C. in 5% CO2/[…].
TNF-α assay: Cells were plated in 96-well plates at 2×10^6 cells/ml in 200 μl of medium and incubated at 37° C. for 2 h. Non-adherent cells were removed by repeated washing with PBS. Macrophages were pre-incubated with 5 μM of LALF peptide during 18 h, afterward were washed with RPMI medium in order to eliminate the peptide. Then macrophages were treated with LPS of E. coli 0111:B4, Sigma (1 μg/ml). TNF-α was determined in supematants from cultured cells at the time 1 h, 2 h, 4 h, 6 h and 24 h used a kit of ELISA kindly provided by [Dr. W. Buurman Univ. Hosp. Maastrich, Netherlands].
FIG. 6: Regulatory effect of LALF derived-peptide on TNF-α production in stimulated peritoneal macrophages. The macrophages were pretreated with 5 μM of LALF peptide during 18 hours and then the cells were activated with 1 μg of E. coli LPS. TNF-α was measured in the cells cultured supernatants at different time.

Pseudomona aerukinosa = test: Survival in mice model of fulminating Gram-negative peritoneal sepsis; assay type: in vivo, mice BalB/c
Experimental: A model of fulminating Gram-negative peritoneal sepsis was developed in mice BalB/c to characterize the efficacy of LALF peptide in protecting an immunologically intact host against serious infections. Groups of mice received LALF peptide (14 μg/0.1 ml) or saline control (0.1 ml) intraperitoneally 20 hours prior to infectious challenge. A doses of Pseudomona aerukinosa (2×10^8 bacterial/mice) producing a total mortality of approximately 90% (Browder et al., 1987, Surgery. Vol. 102: 206-214) was used in order to induce an experimental peritonitis. Survivor's mice were counted each 24 hours during 120 hours after bacterial challenge. Survival data were analyzed by statistical test Kaplan-Meyer, the significance analysis was determined using a long-rank test, table 5. Blood was collected for TNF quantification from the retroorbital sinus at the time 0, 20, 40, 60, 90, 120, 180, 240 min in the control group and peptide treated-mice. The concentration of TNF-α in mouse serum was determined using a specific ELISA kindly provided by. Dr. W. Buurman (University Hospital Maastrich, The Netherlands). FIG. 4.

[2] = system: Mengo virus on cell line Hep-2; test: Antiviral effect: inhibition of the cytopathic effect of Mengo virus on cell line Hep-2; assay type: cell-based; conditions: for Antiviral effect, 1 / Antiviral effect, 2 / Antiviral effect, 3 / Antiviral effect, Mean: 24 h pre-incubation; for Antiviral effect, 1: experiment 1; for Antiviral effect, 2: experiment 2; for Antiviral effect, 3: experiment 3; for Antiviral effect, Mean: mean of 3
Experimental: Then the cells were washed with saline solution and infected with […] of Mengo virus, provide by Institute of Molecular Biology, University of Zurich, which is multiplied in the cell line L929 murine fibroblasts. 18 h later degree of cell destruction was measured by fixation and staining, generally with crystal violet, for reading of cytophatic effect was used a photometer Ultramicroanalytical System (SUMA). A computer program in Pascal UCSD language for the microcomputer system was developed for all calculations and corrections (Ferrero et al., 1994, Biotecnologia Aplicada. Vol. 1:). In this case serial dilution's of human γ-IFN 70 000 IU/ml (MRI, Freeze-dried Reference Human Recombinant Gamma Interferon) was used as standard in order to define unit of antiviral activity. For this reason the antiviral protection shown by the peptide is related to International Units of γ-IFN (Ul/ml). As a negative control were used different peptides from proteins that bind endotoxin. LPS at 10 ng/ml was used as a positively control because is well known that it induced the production of IFNs (Manthey et al., 1994, J. Immunology. Vol. 153: 2653-2663). One unit of antiviral activity is define as the quantity of IFN able to produce an 50% inhibition of the viral replication.

TNF-α in mouse serum = test: Serum TNF-α after intravenous injection of peptide in mice (ELISA); assay type: in vivo, mice BalB/c; conditions: 50 μg intravenously; serum at 0 h, 6 h, 24 h and 48 h; FIG. 3
Experimental: (§1) This approach was developed in mice BalB/c between 6-8 old. The mice were injected intravenously with 50 μg of peptide in 0.1 ml [2.5 mg/kg of body weight] or saline solution as a control. The behavior of animals was observed each 4 hours during 24 h. Survival was followed for one week. Blood was collected for TNF-α quantification from the retroorbital sinus at the time 0 h. 6 h, 24 h and 48 h in the control group and peptide treated-mice. The concentration of TNF-α in mouse serum was determined using a specific ELISA kindly provided by Dr. W. Buurman (University Hospital Maastrich, The Netherlands).

[3] = In vivo toxicity after intravenous injection in mice (behavior, survival); parameters: species or system mice BalB/c
Experimental: as §1

[4] = system: TNFα from human mononuclear cells; test: TNF-α synthesis by human mononuclear cells (ELISA of supernatant); assay type: cell-based; conditions: for TNF - α: 18 h, mean of three donors
Experimental: Venous blood was obtained from healthy volunteers and Ficoll-Hypaque centrifugation, fractionated mononuclear cells. The mononuclear cells were washed and resuspended in endotoxic-free RPMI 1640 medium supplemented with 10% fetal calf serum. 30×10^6 cells were aliquoted into plates p-60 (Nunc, Denmark). The cells were incubated with 14 or 28 μg/ml LALF at 37° C. for 18 hours in 5% CO2 and then centrifuged at 3000 rpm during 5 min. The synthesis of TNFα in the supernatant was determined by specific enzyme-linked immunoadsorbent assay (ELISA), kindly provided by Dr. W. Buurman (University Hospital Maastrich, The Netherlands).

CC[C@H](C)[C@H](NC(=O)[C@H](CCCNC(=N)N)NC(=O)[C@H](Cc1ccc(O)cc1)NC(=O)[C@H](Cc1c[nH]cn1)NC(=O)[C@@H](N)CS)C(=O)N[C@@H](CCCCN)C(=O)N1CCC[C@H]1C(=O)N[C@H](C(=O)N[C@@H](Cc1ccccc1)C(=O)N[C@@H](CCCNC(=N)N)C(=O)N[C@@H](CCCNC(=N)N)C(=O)N[C@@H](CC(C)C)C(=O)N[C@@H](CCCCN)C(=O)N[C@@H](Cc1c[nH]c2ccccc12)C(=O)N[C@@H](CCCCN)C(=O)N[C@@H](Cc1ccc(O)cc1)C(=O)N[C@@H](CCCCN)C(=O)NCC(=O)N[C@@H](CCCCN)C(=O)N[C@@H](Cc1ccccc1)C(=O)N[C@@H](Cc1c[nH]c2ccccc12)C(=O)N[C@@H](CS)C(=O)O)[C@@H](C)O [LALF] (H-CHYRIKPTFRRLKWKYKGKFWC-OH)
TNF levels in LPS-activated macrophages (in words) [1]: down regulated | Survival (%) (Pseudomona aerukinosa; 14 μg/0.1 ml intraperitoneally 20 hours prior to challenge with 2×10^8 bacteria/mouse, followed 120 hours): 36% | Protection from lethal bacterial challenge (in words) (Pseudomona aerukinosa; administrated prophylactically): protects mice from lethal bacterial challenge | Induction of an antiviral state in Hep-2 cells (in words) ([2]; 14 and 28 μg/ml): able to induce an antiviral state | Antiviral effect, 1 ([2]; Hep-2, 14 μg/ml): 35 IU/ml γ-IFN | Antiviral effect, 2 ([2]; Hep-2, 14 μg/ml): 31.7 IU/ml γ-IFN | Antiviral effect, 3 ([2]; Hep-2, 14 μg/ml): 22 IU/ml γ-IFN | Antiviral effect, Mean ([2]; Hep-2, 14 μg/ml): 29.5 IU/ml γ-IFN | Antiviral effect, 1 ([2]; Hep-2, 28 μg/ml): 28.7 IU/ml γ-IFN | Antiviral effect, 2 ([2]; Hep-2, 28 μg/ml): 27 IU/ml γ-IFN | Antiviral effect, 3 ([2]; Hep-2, 28 μg/ml): 31.4 IU/ml γ-IFN | Antiviral effect, Mean ([2]; Hep-2, 28 μg/ml): 28.3 IU/ml γ-IFN | TNF-α production in vivo (in words) (TNF-α in mouse serum): does not stimulate TNF-α production | Toxicity in vivo (in words) ([3]; 50 μg [2.5 mg/kg] intravenously): not toxic in vivo | Survival after intravenous injection (in words) ([3]; 50 μg in 0.1 ml [2.5 mg/kg] intravenously, followed one week): All mice [10 animals/group] survivor beyond of one week | TNF - α ([4]; 14 μg/ml): 0.84 ng/mL | TNF - α ([4]; 28 μg/ml): 0.80 ng/mL | TNF-α levels versus control buffer treated cells (in words) ([4]; 14-28 μg/ml alone): did not induce increased levels of TNF-α over the control buffer treated cells

— patent US6632793B1, “Immunological activity for a peptide of the limulus anti-LPS factor” (Centro de Ingenieria Genetica y Biotecnologia, priority 1997, dated 2003)
